Assays:
Type in all cases: biochemical
[1] = biological target: T1, Rhizoupus oryzae lipase ROL (Rhizopus oryzae, UniProt P61872); assay: Hydrolytic activity of surfactant-treated lipase ROL using pNPP as substrate; conditions: surfactant 10 mM, protein 0.2 mg·mL^−1
T1 construct: purchased Sigma-Aldrich Co., Ltd
Excerpt: (§1) (1) Determination of Hydrolytic Activity of the Lipase Using p-Nitrophenyl Palmitate (pNPP) as Substrate
(§2) Hydrolysis of pNPP catalyzed by lipase generates p-nitrophenol and palmitic acid. p-nitrophenol appears yellow in the buffer at pH 8.0 with the maximum absorption peak at 410 nm. Determination of hydrolytic activity can be achieved by measuring the absorbance at 410 nm.
(§3) The substrate solution A: 50 mmol·L^−1 sodium phosphate buffer (pH 8.0) containing 1.16 g·L^−1 sodium deoxycholate and 0.56 g·L^−1 arabic gum. Substrate solution B: 0.015 g pNPP is dissolved in 5 mL isopropyl alcohol. Substrate solution A and substrate solution B are mixed then stored for use afterwards.
(§4) Termination solution: 40 g·L^−1 NaOH, 93.05 g·L^−1 EDTA sodium. Add 62 uL termination solution to the reaction mixture when stopping the reaction.
(§5) Add 0.1 mL appropriately diluted enzyme solution, which is substituted by inactivated enzyme solution as the control, to 2.4 mL substrate solution above, incubate the mixture at 40° C. for 2 min and measure the absorbance at 410 nm.
(§6) one hydrolytic activity unit is defined as the amount of enzyme that catalyzes the formation of 1 μmol of p-nitrophenol in 1 minute at 40° C.
(§7) enzyme activity (U·mL^−1)=(V×A410×10^6)/(ε×t×V′) Calculation equation: […]
(§8) Specific activity: the activity of lipase per milligram of total protein in the lipase preparation. […]
(§9) Commercial lipase ROL was purchased from Sigma-Aldrich Co., Ltd. ROL is a non-immobilized lipase. Dissolve the ROL powder in water and centrifuge to obtain the supernatant containing the ROL lipase that would be regulated to improve its ester synthesis activity by adjusting the final protein concentration to 0.2 mg·mL^−1 and adding surfactants to the final concentration of 10 mM.
(§10) Commercial lipase ROL was purchased from Sigma-Aldrich Co., Ltd. and is a non-immobilized lipase. Dissolve the ROL powder in water, centrifuge to obtain the supernatant and treat the supernatant with different concentrations of surfactant LPC14 (the final protein concentration was 0.2 mg·mL^−1).

[2] = biological target: T2, Candida antarctica lipase CALB (Moesziomyces antarcticus, UniProt P41365); assay: Hydrolytic activity of surfactant-treated lipase CALB using pNPP as substrate; conditions: protein 0.12 mg·mL^−1
T2 construct: purchased Sigma-Aldrich Co., Ltd
Excerpt: as §1, §2, §3, §4, §5, §6, §7, §8
(§11) Commercial lipase CALB was purchased from Sigma-Aldrich Co., Ltd. CALB is a non-immobilized lipase. Dissolve the CALB powder in water and centrifuge to obtain the supernatant containing the CALB lipase that would be regulated to improve the ester synthesis activity by adjusting the final protein concentration to 0.12 mg·mL^−1 and adding surfactants to the final concentration of 10 mM.
(§12) Commercial lipase CALB was purchased from Sigma-Aldrich Co., Ltd. and is a non-immobilized lipase. Dissolve the CALB powder in water, centrifuge to obtain the supernatant and treat the supernatant with different concentrations of surfactant DDM (the final protein concentration was 0.12 mg·mL^−1).

[3] = biological target: T1, Rhizoupus oryzae lipase ROL; assay: Ester synthesis activity of surfactant-treated lyophilized lipase ROL by GC analysis; conditions: surfactant 10 mM, protein 0.2 mg·mL^−1
Procedure: (§13) (2) Determination of Ester Synthesis Activity of the Lipase by GC Analysis
(§14) Substrate solution A: 48.5 mL of n-octanoic acid is dissolved in 250 mL of n-heptane in a volumetric flask.
(§15) Substrate solution B: 17.5 mL of absolute ethanol is dissolved in 250 mL of n-heptane in a volumetric flask.
(§16) Internal standard: 2-hexanol/n-heptane (35 g·L^−1).
(§17) Standard sample: 10 g of n-octanoate is dissolved in 1000 mL of n-heptane in a volumetric flask.
(§18) 1 mL substrate solution A and substrate solution B are added in a 5 mL Eppendorf tube respectively, then 20 mg lipase powder (or lyophilized powder) is added. The reaction is carried out at 40° C. and with shaking at 150 rpm for 30 min. Remove the lipase powder by centrifugation or membrane filtration. Then 0.1 mL of internal standard is added in 0.4 mL of filtrate or supernatant and mixed. Measure the content of n-octanoate in the mixture above by GC analysis.
(§19) The gas chromatograph (6820, Agilent Instruments) is equipped with a AC20 (PEG20000) capillary column and a FID detector. Nitrogen was used as the carrier gas. The oven temperature was programmed to start at 90° C. for 1 min and then be elevated to 200° C. for 5 min at 10° C.·min^−1. The injector and detector temperatures were set at 250° C.
(§20) Definition of enzyme activity: One unit of ester synthesis activity is defined as the amount of enzyme that esterifies 1 micromole of n-octanoate per min.
(§21) Specific activity: the activity of lipase per milligram of total protein in the lipase preparation.
(§22) Total recovery: the percentage of the activity after a treatment to that before the treatment
(§23) Add an equal volume of high-concentration surfactant solution into the enzyme solution. The final protein concentration was […] and the surfactant concentration was 10 mM. After mixed thoroughly, the mixture was lyophilized and kept in dry condition.
as §9, §10

[4] = biological target: T3, Pseudomonas cepacia lipase PCL (Burkholderia cepacia, UniProt P22088); assay: Ester synthesis activity of surfactant-treated lyophilized lipase PCL by GC analysis; conditions: protein 0.2 mg·mL^−1
T3 construct: purchased Sigma-Aldrich Co., Ltd
Procedure: as §13, §14, §15, §16, §17, §18, §19, §20, §21, §22, §23
(§24) Commercial lipase PCL was purchased from Sigma-Aldrich Co., Ltd. PCL is a non-immobilized lipase. Dissolve the PCL powder in water and centrifuge to obtain the supernatant containing the PCL lipase that would be regulated to improve the ester synthesis activity by adjusting the final protein concentration to 0.2 mg·mL^−1 and adding surfactants to the final concentration of 10 mM.
(§25) Commercial lipase PCL was purchased from Sigma-Aldrich Co., Ltd. and is a non-immobilized lipase. Dissolve the PCL powder in water, centrifuge to obtain the supernatant and treat the supernatant with different concentrations of surfactant DDM (the final protein concentration was 0.2 mg·mL^−1).

[5] = biological target: T2, Candida antarctica lipase CALB; assay: Ester synthesis activity of surfactant-treated lyophilized lipase CALB by GC analysis; conditions: protein 0.12 mg·mL^−1
Procedure: as §13, §14, §15, §16, §17, §18, §19, §20, §21, §22, §23, §11, §12

[6] = system: Rhizopus chinensis lipase r27RCL; assay: Ester synthesis activity of surfactant-treated lyophilized lipase r27RCL by GC analysis; conditions: surfactant 10 mM, protein 0.2 mg·mL^−1
Procedure: as §13, §14, §15, §16, §17, §18, §19, §20, §21, §22, §23
(§26) Commercial lipase r27RCL was purchased from Jiangsu Yiming Biological Technology Co., Ltd, which has high hydrolytic activity and low ester synthesis activity. Dissolve the r27RCL powder in water and centrifuge to obtain the supernatant containing the r27RCL lipase to adjust the ester synthesis activity (the final protein concentration was 0.2 mg·mL^−1 and the final concentration of surfactant was 10 mM, which is between 0.1×CMC^˜200×CMC of the different surfactants in Table 1).
(§27) Commercial lipase r27RCL was purchased from Jiangsu Yiming Biological Technology Co., Ltd. r27RCL is a lipase with high hydrolytic activity but low ester synthesis activity. Dissolve the r27RCL powder in water, centrifuge to obtain the supernatant and treat the supernatant with different concentrations of surfactant LPC14 (the final protein concentration was 0.2 mg·mL^−1).

[7] = system: Rhizopus chinensis lipase r27RCL; assay: Hydrolytic activity of surfactant-treated lipase r27RCL using pNPP as substrate; conditions: surfactant 10 mM, protein 0.2 mg·mL^−1
Excerpt: as §1, §2, §3, §4, §5, §6, §7, §8, §26, §27

[8] = biological target: T3, Pseudomonas cepacia lipase PCL; assay: Hydrolytic activity of surfactant-treated lipase PCL using pNPP as substrate; conditions: protein 0.2 mg·mL^−1
Excerpt: as §1, §2, §3, §4, §5, §6, §7, §8, §24, §25

[9] = surfactant concentration 0.1 x CMC
[10] = surfactant concentration 1 x CMC
[11] = surfactant concentration 10 x CMC
[12] = surfactant concentration 100 x CMC

T2 sequence (P41365 26-342): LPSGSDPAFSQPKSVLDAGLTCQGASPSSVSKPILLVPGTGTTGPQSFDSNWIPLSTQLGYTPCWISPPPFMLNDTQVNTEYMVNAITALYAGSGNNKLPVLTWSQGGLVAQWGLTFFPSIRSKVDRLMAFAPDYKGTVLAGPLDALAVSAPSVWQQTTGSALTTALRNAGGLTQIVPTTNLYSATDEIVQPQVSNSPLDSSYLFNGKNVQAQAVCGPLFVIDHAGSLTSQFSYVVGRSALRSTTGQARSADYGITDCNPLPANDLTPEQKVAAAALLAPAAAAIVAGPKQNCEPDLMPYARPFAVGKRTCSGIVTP
T1 sequence (P61872 96-392): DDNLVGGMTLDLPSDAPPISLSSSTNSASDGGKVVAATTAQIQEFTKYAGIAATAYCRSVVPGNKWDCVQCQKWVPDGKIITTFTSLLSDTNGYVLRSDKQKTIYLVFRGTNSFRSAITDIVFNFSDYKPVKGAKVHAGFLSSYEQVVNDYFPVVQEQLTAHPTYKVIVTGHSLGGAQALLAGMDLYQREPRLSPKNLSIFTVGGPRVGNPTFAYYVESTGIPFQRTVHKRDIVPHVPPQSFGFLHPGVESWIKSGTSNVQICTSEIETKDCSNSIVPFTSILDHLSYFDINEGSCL
T3 sequence (P22088 45-364): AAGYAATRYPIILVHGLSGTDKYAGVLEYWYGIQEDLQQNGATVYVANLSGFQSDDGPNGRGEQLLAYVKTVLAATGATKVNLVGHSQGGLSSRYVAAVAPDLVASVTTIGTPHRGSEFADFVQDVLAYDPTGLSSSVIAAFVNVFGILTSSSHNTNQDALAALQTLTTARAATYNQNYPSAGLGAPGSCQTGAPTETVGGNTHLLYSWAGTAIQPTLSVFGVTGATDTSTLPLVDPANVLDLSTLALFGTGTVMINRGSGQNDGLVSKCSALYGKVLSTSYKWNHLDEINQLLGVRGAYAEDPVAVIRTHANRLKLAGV

For CCCCCCCCCCCCO[C@@H]1O[C@H](CO)[C@@H](O[C@H]2O[C@H](CO)[C@@H](O)[C@H](O)[C@H]2O)[C@H](O)[C@H]1O [DDM, n-dodecyl-ß-D-maltopyranoside], the “Hydrolytic activity, Specific activity” value [1] was 42.7 U · mg^−1, the “Hydrolytic activity, Total recovery” value [1] was 116% and the “Hydrolytic activity, Specific activity” value ([2]; surfactant 10 mM) was 0 U · mg^−1. For the same compound, the “Hydrolytic activity, Total recovery” value ([2]; surfactant 10 mM) was 0%, the “Hydrolytic activity, Specific activity” value [2, 9] was 2.1 U · mg^−1 and the “Hydrolytic activity, Total recovery” value [2, 9] was 45%. For the same compound, the “Hydrolytic activity, Specific activity” value [2, 10] was 3.0 U · mg^−1, the “Hydrolytic activity, Total recovery” value [2, 10] was 75% and the “Hydrolytic activity, Specific activity” value [2, 11] was 0.7 U · mg^−1. The “Hydrolytic activity, Total recovery” value [2, 11] was 10%, the “Hydrolytic activity, Specific activity” value [2, 12] was 0 U · mg^−1 and the “Hydrolytic activity, Total recovery” value [2, 12] was 0%. For the same compound, the “Ester synthesis activity, Specific activity” value [3] was 2.8 U · mg^−1, the “Ester synthesis activity, Specific activity” value ([4]; surfactant 10 mM) was 55.6 U · mg^−1 and the “Ester synthesis activity, Specific activity” value [4, 9] was 3.2 U · mg^−1. The “Ester synthesis activity, Total recovery” value [4, 9] was 58%, the “Ester synthesis activity, Specific activity” value [4, 10] was 2.9 U · mg^−1 and the “Ester synthesis activity, Total recovery” value [4, 10] was 57%. The “Ester synthesis activity, Specific activity” value [4, 11] was 20.0 U · mg^−1, the “Ester synthesis activity, Total recovery” value [4, 11] was 260% and the “Ester synthesis activity, Specific activity” value [4, 12] was 101.6 U · mg^−1. For the same compound, the “Ester synthesis activity, Specific activity” value ([5]; surfactant 10 mM) was 101.9 U · mg^−1, the “Ester synthesis activity, Specific activity” value [5, 9] was 4.0 U · mg^−1 and the “Ester synthesis activity, Total recovery” value [5, 9] was 12%. The “Ester synthesis activity, Specific activity” value [5, 10] was 14.3 U · mg^−1, the “Ester synthesis activity, Total recovery” value [5, 10] was 50% and the “Ester synthesis activity, Specific activity” value [5, 11] was 37.3 U · mg^−1. The “Ester synthesis activity, Total recovery” value [5, 11] was 73%, the “Ester synthesis activity, Specific activity” value [5, 12] was 32.6 U · mg^−1 and the “Ester synthesis activity, Total recovery” value [5, 12] was 189%. For the same compound, the “Ester synthesis activity, Specific activity” value [6] was 31.4 U · mg^−1, the “Hydrolytic activity, Specific activity” value [7] was 135.0 U · mg^−1 and the “Hydrolytic activity, Total recovery” value [7] was 94%. The “Hydrolytic activity, Specific activity” value ([8]; surfactant 10 mM) was 327.7 U · mg^−1, the “Hydrolytic activity, Total recovery” value ([8]; surfactant 10 mM) was 111% and the “Hydrolytic activity, Specific activity” value [8, 9] was 499.5 U · mg^−1. For the same compound, the “Hydrolytic activity, Total recovery” value [8, 9] was 106%, the “Hydrolytic activity, Specific activity” value [8, 10] was 434.7 U · mg^−1 and the “Hydrolytic activity, Total recovery” value [8, 10] was 99%. The “Hydrolytic activity, Specific activity” value [8, 11] was 756.7 U · mg^−1, the “Hydrolytic activity, Total recovery” value [8, 11] was 114% and the “Hydrolytic activity, Specific activity” value [8, 12] was 773.5 U · mg^−1. The “Hydrolytic activity, Total recovery” value [8, 12] was 246%.
For CCCCCCCCCCCCOCCOCCOCCOCCOCCOCCOCCOCCO [C12E8, octaethylene glycol monododecyl ether], the “Hydrolytic activity, Specific activity” value [1] was 23.7 U · mg^−1, the “Hydrolytic activity, Total recovery” value [1] was 82% and the “Hydrolytic activity, Specific activity” value ([2]; surfactant 10 mM) was 0 U · mg^−1. The “Hydrolytic activity, Total recovery” value ([2]; surfactant 10 mM) was 0%, the “Ester synthesis activity, Specific activity” value [3] was 2.6 U · mg^−1 and the “Ester synthesis activity, Specific activity” value ([4]; surfactant 10 mM) was 4.6 U · mg^−1. For the same compound, the “Ester synthesis activity, Total recovery” value ([4]; surfactant 10 mM) was 130%, the “Ester synthesis activity, Specific activity” value ([5]; surfactant 10 mM) was 62.8 U · mg^−1 and the “Ester synthesis activity, Specific activity” value [6] was 22.2 U · mg^−1. The “Hydrolytic activity, Specific activity” value [7] was 117.1 U · mg^−1, the “Hydrolytic activity, Total recovery” value [7] was 101% and the “Hydrolytic activity, Specific activity” value ([8]; surfactant 10 mM) was 281.1 U · mg^−1. For the same compound, the “Hydrolytic activity, Total recovery” value ([8]; surfactant 10 mM) was 98%.
With CCCCCC(=O)OC[C@H](COP(=O)([O-])OCC[N+](C)(C)C)OC(=O)CCCCC [DiC6PC, 1,2-dihexanoyl lecithin] the “Hydrolytic activity, Specific activity” value [1] was 15.2 U · mg^−1, the “Hydrolytic activity, Total recovery” value [1] was 76% and the “Hydrolytic activity, Specific activity” value ([2]; surfactant 10 mM) was 0.98 U · mg^−1. The “Hydrolytic activity, Total recovery” value ([2]; surfactant 10 mM) was 85%, the “Ester synthesis activity, Specific activity” value [3] was 3.11 U · mg^−1 and the “Ester synthesis activity, Specific activity” value ([4]; surfactant 10 mM) was 7.1 U · mg^−1. The “Ester synthesis activity, Total recovery” value ([4]; surfactant 10 mM) was 260%, the “Ester synthesis activity, Specific activity” value ([5]; surfactant 10 mM) was 31.9 U · mg^−1 and the “Ester synthesis activity, Specific activity” value [6] was 15.9 U · mg^−1. For the same compound, the “Ester synthesis activity, Total recovery” value [6] was 256%, the “Hydrolytic activity, Specific activity” value [7] was 104.2 U · mg^−1 and the “Hydrolytic activity, Total recovery” value [7] was 87%. For the same compound, the “Hydrolytic activity, Specific activity” value ([8]; surfactant 10 mM) was 308.2 U · mg^−1 and the “Hydrolytic activity, Total recovery” value ([8]; surfactant 10 mM) was 140%.

— patent US20190185829A1, “Preparation of lipase with improved ester synthesis activity by using surfactants” (Jiangnan University, priority 2017, published 2019)
